The term Ki denotes a measure of affinity in units of concentration, obtained from inhibition or displacement. Read a low Ki as a stronger hold on the target.

This note sets out measurements from BindingDB's records for doi:10.1124/jpet.103.049262 (Sanofi-Synthelabo Research, 2003).

In test [1] the target is Neuronal acetylcholine receptor subunit alpha-4 (Homo sapiens, UniProt P43681).
In test [2] the target is Acetylcholine receptor subunit alpha (Homo sapiens, UniProt P02708).

Molecules are shown by their SMILES.

Chain of Neuronal acetylcholine receptor subunit alpha-4 (P43681 whole entry): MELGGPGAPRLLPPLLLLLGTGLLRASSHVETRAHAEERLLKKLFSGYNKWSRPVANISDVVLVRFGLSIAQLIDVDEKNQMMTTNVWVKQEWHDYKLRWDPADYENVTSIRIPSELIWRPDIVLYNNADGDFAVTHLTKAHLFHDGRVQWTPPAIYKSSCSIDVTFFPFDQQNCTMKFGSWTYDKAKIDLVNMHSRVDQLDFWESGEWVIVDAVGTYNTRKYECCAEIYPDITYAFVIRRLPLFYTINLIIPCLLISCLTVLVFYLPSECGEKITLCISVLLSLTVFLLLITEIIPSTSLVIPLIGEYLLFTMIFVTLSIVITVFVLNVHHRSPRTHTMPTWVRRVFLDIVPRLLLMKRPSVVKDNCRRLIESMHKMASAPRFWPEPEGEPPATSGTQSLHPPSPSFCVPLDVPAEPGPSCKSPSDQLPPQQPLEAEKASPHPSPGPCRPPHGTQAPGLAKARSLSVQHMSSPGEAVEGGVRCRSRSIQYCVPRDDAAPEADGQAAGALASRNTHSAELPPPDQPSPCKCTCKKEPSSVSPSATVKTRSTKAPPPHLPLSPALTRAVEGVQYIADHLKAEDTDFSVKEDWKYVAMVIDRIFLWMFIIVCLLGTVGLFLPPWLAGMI
Chain of Acetylcholine receptor subunit alpha (P02708 as listed by the source): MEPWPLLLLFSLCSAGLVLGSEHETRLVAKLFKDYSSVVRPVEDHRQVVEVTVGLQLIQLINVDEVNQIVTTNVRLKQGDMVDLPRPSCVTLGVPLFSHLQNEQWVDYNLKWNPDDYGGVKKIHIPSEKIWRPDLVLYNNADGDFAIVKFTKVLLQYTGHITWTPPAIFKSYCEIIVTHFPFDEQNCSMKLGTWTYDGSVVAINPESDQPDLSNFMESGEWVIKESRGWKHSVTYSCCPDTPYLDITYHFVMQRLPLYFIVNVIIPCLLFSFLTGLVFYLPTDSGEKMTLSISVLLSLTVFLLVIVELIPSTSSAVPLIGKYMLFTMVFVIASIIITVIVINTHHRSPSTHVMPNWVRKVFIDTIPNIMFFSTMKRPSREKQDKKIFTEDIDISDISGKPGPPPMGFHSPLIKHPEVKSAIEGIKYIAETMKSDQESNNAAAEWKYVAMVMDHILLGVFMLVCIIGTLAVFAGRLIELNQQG

`c1cnc2c(c1)O[C@H]1CCN3CC[C@@]1(C2)C3`: the Ki in test [1] turned out to be 0.036 µM; in test [2], 6 µM.
